In patent US20210187016A1, “METHOD OF TREATING NONALCOHOLIC STEATOHEPATITIS” (Vector Vitale IP LLC, priority 2019, published 2021):

Experiment: Intraperitoneal administration to intact rats: accumulation of metals in liver and kidney tissues
Type: in vivo
Details: day 1 and day 7 after drug withdrawal, 3750 μg of zinc per kg intraperitoneally, 7 injections
Experimental: Animals are placed in cages, 4 per cage, with free access to food/water. […] Administration is performed every other day, in the amount of 7 injections per animal (intraperitoneal method of drug administration). […] After the last injection, a half of the animals are maintained on hunger (for 12 hours) with free access to water. Upon expiration of this time period, the animals are taken out of the experiment. The second half of the animals continues to have free access to food/water for a further 7 days. On day 6 after the last injection, the animals are maintained on hunger (for 12 hours) with free access to water. Upon expiration of this time period, the animals are taken out of the experiment.
The total kidney, liver and muscle homogenates were prepared as follows. Organ excision and homogenization were carried out at a temperature of 1-4° C. […] The volume of the used buffer in ml was 5 times larger than the mass of isolated organs in grams. The isolated liver was perfused with chilled saline (0.9% NaCl) via the portal vein using a syringe. The minced liver was transferred to a homogenizer with a finely ground Teflon pestle and homogenized in chilled buffer. An isolated pair of kidneys was perfused with chilled saline, released from adipose tissue and minced with scissors. […]

**Q.** With CC(=O)[O-].CC(=O)[O-].[Zn+2] [Zn acetate, Zinc acetate] as the compound, how does the “Zinc level in liver and kidney tissues” value read?
**A.** The value was “significantly increased”.
